Data: ChEMBL document CHEMBL6074667, “Discovery and Optimization of First-in-Class Molecular Glue Degraders of the WIZ Transcription Factor for Fetal Hemoglobin Induction to Treat Sickle Cell Disease” (J Med Chem, 2024)
In brackets after ≈: the same amount, converted by molar mass. Activity calls are given as the source filed them. No cut-off for these calls is given here.

Biological target: T1, Protein cereblon/Protein Wiz (Homo sapiens, UniProt Q96SW2+O95785)
Test: Molecular glue activity at CRBN/WIZ in human CD34-positive derived primary erythroblast assessed as induction of WIZ degradation by flow cytometric analysis
Format: cell-based
Settings: not given

T1 sequence (O95785 whole entry, looked up): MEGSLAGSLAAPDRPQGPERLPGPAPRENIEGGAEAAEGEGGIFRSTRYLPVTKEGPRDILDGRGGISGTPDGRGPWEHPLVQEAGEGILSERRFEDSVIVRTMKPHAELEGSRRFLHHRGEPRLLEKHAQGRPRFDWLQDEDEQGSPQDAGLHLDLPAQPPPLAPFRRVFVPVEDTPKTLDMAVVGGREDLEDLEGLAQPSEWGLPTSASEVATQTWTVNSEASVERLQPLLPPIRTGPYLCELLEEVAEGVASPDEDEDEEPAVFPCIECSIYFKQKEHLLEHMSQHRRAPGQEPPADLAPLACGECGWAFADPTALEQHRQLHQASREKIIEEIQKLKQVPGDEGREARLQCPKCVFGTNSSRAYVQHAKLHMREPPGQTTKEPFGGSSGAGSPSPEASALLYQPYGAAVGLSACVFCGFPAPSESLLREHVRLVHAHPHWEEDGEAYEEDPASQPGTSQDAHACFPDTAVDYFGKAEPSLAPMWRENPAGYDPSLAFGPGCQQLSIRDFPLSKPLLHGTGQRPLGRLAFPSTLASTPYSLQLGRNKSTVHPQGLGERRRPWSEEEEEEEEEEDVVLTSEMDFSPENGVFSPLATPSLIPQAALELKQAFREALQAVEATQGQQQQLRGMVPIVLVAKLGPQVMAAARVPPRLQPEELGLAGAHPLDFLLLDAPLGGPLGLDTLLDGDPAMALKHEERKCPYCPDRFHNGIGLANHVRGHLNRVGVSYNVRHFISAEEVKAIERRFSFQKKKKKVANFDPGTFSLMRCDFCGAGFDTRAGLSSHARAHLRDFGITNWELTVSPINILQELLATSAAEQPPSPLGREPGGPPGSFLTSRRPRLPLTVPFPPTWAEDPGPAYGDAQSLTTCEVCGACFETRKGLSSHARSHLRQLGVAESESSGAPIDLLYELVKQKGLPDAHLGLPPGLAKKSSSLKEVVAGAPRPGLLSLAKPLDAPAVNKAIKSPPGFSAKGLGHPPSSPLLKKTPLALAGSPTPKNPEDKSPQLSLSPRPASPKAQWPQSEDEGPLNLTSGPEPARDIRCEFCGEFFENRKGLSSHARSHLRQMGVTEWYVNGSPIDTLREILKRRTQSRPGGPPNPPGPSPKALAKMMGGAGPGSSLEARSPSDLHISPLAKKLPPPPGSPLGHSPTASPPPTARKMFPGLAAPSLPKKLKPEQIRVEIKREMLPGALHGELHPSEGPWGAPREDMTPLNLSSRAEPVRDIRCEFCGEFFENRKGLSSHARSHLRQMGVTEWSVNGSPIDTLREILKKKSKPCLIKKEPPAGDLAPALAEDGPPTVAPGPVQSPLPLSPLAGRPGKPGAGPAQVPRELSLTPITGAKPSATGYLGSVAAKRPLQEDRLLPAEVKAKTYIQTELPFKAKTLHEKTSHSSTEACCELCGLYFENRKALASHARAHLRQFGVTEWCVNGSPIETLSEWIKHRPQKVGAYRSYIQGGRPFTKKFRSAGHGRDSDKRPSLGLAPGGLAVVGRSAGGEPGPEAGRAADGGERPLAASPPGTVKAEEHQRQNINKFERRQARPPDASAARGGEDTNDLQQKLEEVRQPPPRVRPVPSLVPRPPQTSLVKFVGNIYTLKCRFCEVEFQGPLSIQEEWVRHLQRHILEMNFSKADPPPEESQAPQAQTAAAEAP
T1 sequence (Q96SW2 whole entry, looked up): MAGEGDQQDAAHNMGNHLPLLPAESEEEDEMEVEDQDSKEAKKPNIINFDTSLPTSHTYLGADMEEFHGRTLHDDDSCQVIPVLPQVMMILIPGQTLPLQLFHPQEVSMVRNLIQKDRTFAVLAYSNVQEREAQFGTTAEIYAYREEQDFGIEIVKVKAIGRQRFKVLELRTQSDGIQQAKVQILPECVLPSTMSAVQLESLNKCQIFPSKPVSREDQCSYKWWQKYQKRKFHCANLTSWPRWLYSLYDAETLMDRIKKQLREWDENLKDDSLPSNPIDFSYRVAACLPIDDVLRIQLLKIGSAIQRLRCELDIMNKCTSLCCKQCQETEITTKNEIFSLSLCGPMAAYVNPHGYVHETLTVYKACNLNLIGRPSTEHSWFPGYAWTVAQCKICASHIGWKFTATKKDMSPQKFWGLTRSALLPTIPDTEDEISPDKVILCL

| SMILES | Activity |
| --- | --- |
| C[C@@H](Oc1ccc2c(c1)CN(C1CCC(=O)NC1=O)C2=O)[C@H]1CCCCN1C (some centres not stated) | Active |

Biological target: T1, Protein cereblon/Protein Wiz
Test: Molecular glue activity at CRBN/WIZ in human CD34-positive derived primary erythroblast assessed as induction fetal hemoglobin by flow cytometric analysis
Format: cell-based
Settings: not given

| SMILES | Activity |
| --- | --- |
| C[C@@H](Oc1ccc2c(c1)CN(C1CCC(=O)NC1=O)C2=O)[C@H]1CCCCN1C (some centres not stated) | Active |

Tested on: not listed separately
Test: Solubility of compound in potassium phosphate buffer at pH 6.8 incubated for 16 to 24 hrs by high-throughput Agilent Rapidfire-MS/MS analysis
Format: physicochemical
Settings: time 16-24 hrs

| SMILES | solubility |
| --- | --- |
| C[C@@H](Oc1ccc2c(c1)CN(C1CCC(=O)NC1=O)C2=O)[C@H]1CCCCN1C (some centres not stated) | 640 µM (≈ 247 µg/mL) |

Tested on: not listed separately
Test: Apparent permeability across apical to basolateral side in low efflux MDCK cells at 10 uM incubated for 2 hrs by LC-MS analysis
Format: ADME, cell-based, Canis lupus familiaris
Settings: dog

| SMILES | Papp A→B at 2 h, 10 µM |
| --- | --- |
| C[C@@H](Oc1ccc2c(c1)CN(C1CCC(=O)NC1=O)C2=O)[C@H]1CCCCN1C (some centres not stated) | 0.37 ×10⁻⁶ cm/s |

Tested on: not listed separately
Test: Apparent permeability across apical to basolateral side in low efflux MDCK cells assessed as drug recovery at 10 uM incubated for 2 hrs by LC-MS analysis
Format: ADME, cell-based, Canis lupus familiaris
Settings: dog, read-out: Drug recovery

| SMILES | recovery at 2 h, 10 µM |
| --- | --- |
| C[C@@H](Oc1ccc2c(c1)CN(C1CCC(=O)NC1=O)C2=O)[C@H]1CCCCN1C (some centres not stated) | 66% |

Tested on: not listed separately
Test: Intrinsic clearance in mouse liver microsomes
Format: ADME, Microsome
Settings: read-out: CLH

| SMILES | microsomal CLint |
| --- | --- |
| C[C@@H](Oc1ccc2c(c1)CN(C1CCC(=O)NC1=O)C2=O)[C@H]1CCCCN1C (some centres not stated) | < 25 µL/min/mg |

Tested on: not listed separately
Test: Intrinsic clearance in rat liver microsomes
Format: ADME, Microsome
Settings: read-out: CLH

| SMILES | microsomal CLint |
| --- | --- |
| C[C@@H](Oc1ccc2c(c1)CN(C1CCC(=O)NC1=O)C2=O)[C@H]1CCCCN1C (some centres not stated) | < 25 µL/min/mg |

Tested on: not listed separately
Test: Intrinsic clearance in human liver microsomes
Format: ADME, Microsome
Settings: read-out: CLH

| SMILES | microsomal CLint |
| --- | --- |
| C[C@@H](Oc1ccc2c(c1)CN(C1CCC(=O)NC1=O)C2=O)[C@H]1CCCCN1C (some centres not stated) | < 25 µL/min/mg |

Tested on: not listed separately
Test: Protein binding in mouse plasma
Format: ADME, cell-free
Settings: read-out: PPB (converted)

| SMILES | fraction unbound |
| --- | --- |
| C[C@@H](Oc1ccc2c(c1)CN(C1CCC(=O)NC1=O)C2=O)[C@H]1CCCCN1C (some centres not stated) | > 0.8 |

Tested on: not listed separately
Test: Protein binding in rat plasma
Format: ADME, cell-free
Settings: read-out: PPB (converted)

| SMILES | fraction unbound |
| --- | --- |
| C[C@@H](Oc1ccc2c(c1)CN(C1CCC(=O)NC1=O)C2=O)[C@H]1CCCCN1C (some centres not stated) | 0.58 |

Tested on: not listed separately
Test: Protein binding in human plasma
Format: ADME, cell-free
Settings: read-out: PPB (converted)

| SMILES | fraction unbound |
| --- | --- |
| C[C@@H](Oc1ccc2c(c1)CN(C1CCC(=O)NC1=O)C2=O)[C@H]1CCCCN1C (some centres not stated) | 0.69 |

Tested on: not listed separately
Test: Half-life in C57BL/6 mouse at 1 mg/kg, iv
Format: ADME, organism-based
Settings: in vivo

| SMILES | half-life |
| --- | --- |
| C[C@@H](Oc1ccc2c(c1)CN(C1CCC(=O)NC1=O)C2=O)[C@H]1CCCCN1C (some centres not stated) | 1.9 h |

Tested on: not listed separately
Test: Clearance in C57BL/6 mouse at 1 mg/kg, iv
Format: ADME, organism-based
Settings: in vivo

| SMILES | clearance |
| --- | --- |
| C[C@@H](Oc1ccc2c(c1)CN(C1CCC(=O)NC1=O)C2=O)[C@H]1CCCCN1C (some centres not stated) | 28 mL/min/kg |

Tested on: not listed separately
Test: Volume of distribution at steady state in C57BL/6 mouse at 1 mg/kg, iv
Format: ADME, organism-based
Settings: in vivo, read-out: Vdss

| SMILES | Vd |
| --- | --- |
| C[C@@H](Oc1ccc2c(c1)CN(C1CCC(=O)NC1=O)C2=O)[C@H]1CCCCN1C (some centres not stated) | 2.9 L/kg |

Tested on: not listed separately
Test: AUClast in C57BL/6 mouse at 3 mg/kg, po
Format: ADME, organism-based
Settings: in vivo

| SMILES | AUC(0-t) |
| --- | --- |
| C[C@@H](Oc1ccc2c(c1)CN(C1CCC(=O)NC1=O)C2=O)[C@H]1CCCCN1C (some centres not stated) | 0.115 µM·h |

Tested on: not listed separately
Test: Cmax in C57BL/6 mouse at 3 mg/kg, po
Format: ADME, organism-based
Settings: in vivo

| SMILES | Cmax |
| --- | --- |
| C[C@@H](Oc1ccc2c(c1)CN(C1CCC(=O)NC1=O)C2=O)[C@H]1CCCCN1C (some centres not stated) | 24 nM |

Tested on: not listed separately
Test: Tmax in C57BL/6 mouse at 3 mg/kg, po or 1 mg/kg, iv
Format: ADME, organism-based
Settings: in vivo

| SMILES | Tmax |
| --- | --- |
| C[C@@H](Oc1ccc2c(c1)CN(C1CCC(=O)NC1=O)C2=O)[C@H]1CCCCN1C (some centres not stated) | 3 h |

Tested on: not listed separately
Test: Bioavailability last in C57BL/6 mouse
Format: ADME, organism-based
Settings: in vivo

| SMILES | bioavailability |
| --- | --- |
| C[C@@H](Oc1ccc2c(c1)CN(C1CCC(=O)NC1=O)C2=O)[C@H]1CCCCN1C (some centres not stated) | 2.7% |

Biological target: T1, Protein cereblon/Protein Wiz
Test: Molecular glue activity at CRBN/HiBiT-tagged WIZ (unknown origin) expressed in HEK293T cells assessed as induction of WIZ degradation incubated for 18 hrs by Nano-Glo HiBiT-Lytic reagent based luminescence plate reader analysis relative to control
Format: cell-based
Design: concentration or dose not given beside the values
Settings: not given

| SMILES | Activity |
| --- | --- |
| C[C@@H](Oc1ccc2c(c1)CN(C1CCC(=O)NC1=O)C2=O)[C@H]1CCCCN1C (some centres not stated) | 93% |

Biological target: Protein cereblon/Sal-like protein 4 (Homo sapiens, UniProt Q96SW2+Q9UJQ4)
Sequence (Q96SW2 whole entry, looked up): as above
Sequence (Q9UJQ4 whole entry, looked up): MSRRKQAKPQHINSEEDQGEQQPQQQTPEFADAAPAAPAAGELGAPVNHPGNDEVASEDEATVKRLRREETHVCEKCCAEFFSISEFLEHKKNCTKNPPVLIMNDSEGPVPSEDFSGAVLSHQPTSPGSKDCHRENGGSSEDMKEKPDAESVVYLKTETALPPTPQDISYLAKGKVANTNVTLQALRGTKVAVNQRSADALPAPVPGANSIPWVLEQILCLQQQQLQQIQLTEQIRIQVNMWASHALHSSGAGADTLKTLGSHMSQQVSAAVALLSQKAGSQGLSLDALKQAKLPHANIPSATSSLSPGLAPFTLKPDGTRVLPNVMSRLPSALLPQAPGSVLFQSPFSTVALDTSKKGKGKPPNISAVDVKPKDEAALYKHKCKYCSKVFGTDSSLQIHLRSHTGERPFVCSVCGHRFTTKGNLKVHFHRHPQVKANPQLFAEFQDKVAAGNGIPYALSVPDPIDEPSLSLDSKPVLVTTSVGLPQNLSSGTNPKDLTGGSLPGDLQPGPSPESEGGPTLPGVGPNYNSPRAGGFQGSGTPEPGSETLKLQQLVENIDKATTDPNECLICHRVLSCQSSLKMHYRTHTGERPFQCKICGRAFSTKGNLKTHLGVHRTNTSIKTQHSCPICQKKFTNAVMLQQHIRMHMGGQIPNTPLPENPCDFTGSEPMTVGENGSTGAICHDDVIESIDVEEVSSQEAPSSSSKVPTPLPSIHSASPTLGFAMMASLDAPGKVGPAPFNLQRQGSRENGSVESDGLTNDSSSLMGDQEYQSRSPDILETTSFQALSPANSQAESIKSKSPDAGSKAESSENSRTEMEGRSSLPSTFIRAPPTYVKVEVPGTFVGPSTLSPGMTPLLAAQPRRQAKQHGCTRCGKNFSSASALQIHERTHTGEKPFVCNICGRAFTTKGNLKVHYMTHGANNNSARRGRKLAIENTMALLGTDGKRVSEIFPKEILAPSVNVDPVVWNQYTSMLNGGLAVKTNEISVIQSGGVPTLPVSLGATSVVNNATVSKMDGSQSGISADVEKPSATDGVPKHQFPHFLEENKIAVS
Test: Molecular glue activity at CRBN/HiBiT-tagged SALL4 (unknown origin) expressed in human GripTite 293 MSR cells assessed as induction of SALL4 degradation incubated for 20 hrs by Nano-Glo HiBiT-Lytic reagent based luminescence plate reader analysis relative to control
Format: cell-based
Design: concentration or dose not given beside the values
Settings: not given

| SMILES | Activity |
| --- | --- |
| C[C@@H](Oc1ccc2c(c1)CN(C1CCC(=O)NC1=O)C2=O)[C@H]1CCCCN1C (some centres not stated) | 58% |

Biological target: Cereblon/Ikaros (Homo sapiens, UniProt Q96SW2+Q13422)
Test: Molecular glue activity at CRBN/HiBiT-tagged IKZF1 (unknown origin) expressed in human GripTite 293 MSR cells assessed as induction of […] incubated for 20 hrs by Nano-Glo HiBiT-Lytic reagent based luminescence plate reader analysis relative to control
Format: cell-based
Design: concentration or dose not given beside the values
Settings: not given

| SMILES | Activity |
| --- | --- |
| C[C@@H](Oc1ccc2c(c1)CN(C1CCC(=O)NC1=O)C2=O)[C@H]1CCCCN1C (some centres not stated) | < 11% |

Biological target: Protein cereblon/Eukaryotic peptide chain release factor GTP-binding subunit ERF3A (Homo sapiens, UniProt Q96SW2+P15170)
Sequence (P15170 whole entry, looked up): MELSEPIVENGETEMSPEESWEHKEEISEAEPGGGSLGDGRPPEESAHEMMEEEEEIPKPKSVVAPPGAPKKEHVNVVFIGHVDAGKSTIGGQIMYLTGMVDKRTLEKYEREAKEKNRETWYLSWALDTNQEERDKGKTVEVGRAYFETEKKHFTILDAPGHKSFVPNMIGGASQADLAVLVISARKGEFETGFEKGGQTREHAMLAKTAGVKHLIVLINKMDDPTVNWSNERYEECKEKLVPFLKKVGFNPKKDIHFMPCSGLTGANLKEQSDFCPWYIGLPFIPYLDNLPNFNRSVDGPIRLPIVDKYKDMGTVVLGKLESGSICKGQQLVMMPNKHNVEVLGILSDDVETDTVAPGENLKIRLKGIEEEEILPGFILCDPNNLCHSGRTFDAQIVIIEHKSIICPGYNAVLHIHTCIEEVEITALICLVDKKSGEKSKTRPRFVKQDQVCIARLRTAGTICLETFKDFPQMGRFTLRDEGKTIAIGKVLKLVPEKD
Sequence (Q96SW2 whole entry, looked up): as the sequence (Q96SW2 whole entry, looked up) above
Test: Molecular glue activity at CRBN/HiBiT-tagged GSPT1 (unknown origin) expressed in human GripTite 293 MSR cells assessed as induction of GSPT1 degradation incubated for 20 hrs by Nano-Glo HiBiT-Lytic reagent based luminescence plate reader analysis relative to control
Format: cell-based
Design: concentration or dose not given beside the values
Settings: not given

| SMILES | Activity |
| --- | --- |
| C[C@@H](Oc1ccc2c(c1)CN(C1CCC(=O)NC1=O)C2=O)[C@H]1CCCCN1C (some centres not stated) | < 11% |
